Source: US11680086B2, “Lipopeptide for potently inhibiting HIV, derivative thereof, pharmaceutical composition thereof and use thereof” (Institute of Pathogen Biology, Chinese Academy of Medical …, priority 2017, dated 2023)
Like-named read-outs stand apart in the source and are kept apart here. Peptide text beside a SMILES is read from it. * marks the point of attachment. Palmitoyl = CCCCCCCCCCCCCCCC(=O)*

Key:
[1] = circular dichroism secondary structure analysis of the inhibitors themselves; assay type: physicochemical; conditions: 10 μM, 20 μM and 40 μM in PBS
Experimental: (§1) The circular dichroism spectrophotometer was Jasco-815 by JASCO Inc., and the assay method was referred to the papers published by the inventors (see the References 18 and 30 listed in the Background Art). […] The N39 and an inhibitor were separately dissolved in a phosphate buffered saline (PBS) to prepare a PBS solution (pH 7.2) of a concentration of 20 μM. The N39 was mixed with an inhibitor at a volume ratio of 1:1 (final concentration of 10 μM for each), the mixed sample was placed at 37° C. for 30 minutes to fully react, and then the helix content and Tm value of the resultant complex were measured by the circular dichroism spectrophotometer. The scan wavelength range of the device was 195-260 nm with a wavelength interval of 1 nm, and the values measured by scanning for three times were averaged. Based on the CD signals, the interaction between the polypeptides and the helix content were determined. Then, the sample for CD signal measurement was transferred to the temperature scanning sample cell, the program of the CD device was set to temperature scanning with a detection wavelength of 220 nm and scanning range of 20-98° C., and the program scan was performed to obtain the curve of the CD signals vs temperature, based on which the Tm value was calculated. Based on the Tm value, the stability of the formed helical structure of the inhibitor and N39 was judged.
For easy analysis, the α-helix content and the Tm value of the inhibitors were measured at concentrations of 10 μM, 20 μM, and 40 μM (PBS solution), respectively.

[2] = system: HXB2-mediated cell fusion (HL2/3 effector cells, TZM-b1 target cells); assay type: cell-based, HIV-1
Experimental: HIV-1 mediated cell fusion inhibition assay: the effector cells (HL2/3 cells) and target cells (TZM-b1 cells) were provided by the AIDS Reagent Program of National Institutes of Health (NIH) (catalog numbers: 1294 and 8129, respectively). The both cells were adherent cells and were cultured in a DMEM cell culture medium containing ampicillin/streptomycin double antibiotics and 10% fetal bovine serum (FBS). The TZM-b1 was first added to a 96-well cell culture plate (1×10^4 cells/well), and cultured overnight at 37° C. and 5% CO2. The test substance was diluted with the DMEM cell culture medium by 3 folds and mixed with HL2/3 effector cells (3×10^4 cells/well), then added to the TZM-b1 target cells, and further cultured for 6 hours to fully fuse. The activity of luciferase (relative fluorescence units, RLU) was then determined using a luciferase reporter gene kit from Promega company according to the instructions. The inhibition rate of each sample at each concentration was calculated, and the half effective inhibitory concentration (IC50 value) was calculated using GraphPad Prism Software 2.01.

[3] = system: HIV-1 strain NL4-3 pseudovirus (D36G mutant); assay type: cell-based
Experimental: (§2) The supernatant was discarded from the wells. […] Inhibition rate (%) and IC50 value were calculated.

[4] = system: SIV pseudoviruses SIVpbj and SIV239; assay: inhibition of SIV pseudoviruses; assay type: cell-based
Experimental: as §2
(§3) In order to further reflect the antiviral advantages of the potent lipopeptides of the present invention, their inhibitory activity against HIV-2 and SIV was determined in the example. The methods of antiviral activity assays used were described in the literatures published by the present inventors (see the References 13 and 30 listed in the Background Art). The molecular cloning plasmid pROD of the HIV-2 strain ROD (HIV-2ROD) was kindly provided by Professor Nuno Taveira from the University of Lisbon, Portugal, and the plasmids expressing the SIV strain SIVpbj (SIVPBJ) and SIV239 envelope proteins (pSIVpbj-Env and pSIV239, respectively) were kindly provided by Professor Xu Jianqing from the Fudan University. The preparation of the infectious ROD was the same as that of the infectious JRCSF in the above section 2.1, and the pseudoviruses SIVpbj and SIV239 were prepared by a method same as that described in the above Examples 2 and 3.

[5] = system: 35 HIV-1 pseudoviruses (subtypes A, B, B', C, G, A/C, A/E, B/C); conditions: for IC50: read-out: average IC50 for inhibition of various types of HIV-1 pseudoviruses, average over 35 pseudoviruses
From the text: HIV-1 pseudovirus-mediated cell entry inhibition assay: basic steps included: (1) Preparation of HIV-1 pseudovirus: the 293T cells were co-transfected with a plasmid expressing the envelope protein (Env) of HIV-1 strain NL4-3 (i.e., a recombinant expression plasmid obtained by inserting the gene encoding the envelope protein (ENV) of the D36G mutant of the HIV-1 strain NL4-3 in the Table 2 of the Reference 14 listed in the Background Art into the vector pcDNA3.1(−)) and the HIV-1 backbone plasmid pSG3Δenv (provided by the AIDS Reagent Program of National Institutes of Health (NIH), catalog number: 11051) by using a cell transfection reagent, incubated in a cell incubator of 37° C. and 5% CO2 for 6 hours, and then the medium was changed, and the cells were further incubated for 48 hours. The cell culture supernatant containing pseudovirus particles was pipetted and filtered with a 0.45 μm filter to collect the supernatant, then 20% fetal bovine serum (FBS) was added thereto, the final solution was transferred to a polypropylene tube, and stored at −80° C. for ready for use or directly subjected to virus titration. (2) Titration of HIV-1 pseudovirus: the viruses were diluted by 5 folds in a 96-well plate, and 4 replicate wells with 8 gradients were set to a final volume of 100 microliters. The TZM-b1 cells were trypsinized and counted, and the cells were diluted to 1×10^5 cells/ml with DMEM complete medium; 100 μl of cells dilution (containing 15 μg/ml DEAE-dextran) per well were added and cultured at 37° C. and 5% CO2 for 48 hours. The 96-well plate was then taken from the cell culture incubator. The supernatant was discarded from the wells. To each well, 30 μl of a cell lysate was added, and after 10 minutes, 100 μl of a luciferase detection reagent was added. 100 μl of liquid was pipetted from each well and added to a corresponding 96-well white plate, and the luminescence values were read by a microplate photometer. The virus titer was calculated by the Reed-Muench method. (3) Antiviral activity assay: the test substance was dissolved in DMSO and diluted with a cell culture solution by 3 folds, and placed in a 96-well plate at a final volume of […]. 50 μl of a DMEM medium was used in place of the test substance as a negative control. To each well, 100 μl of TZM-b1 target cells solution (containing 15 μg/ml DEAE-dextran) at a concentration of 1×10^5 cells/ml was added, and then 50 μl (corresponding to 100 TCID50 per well) of the HIV-1 pseudovirus obtained above was added. After incubation at 37° C. and 5% CO2 for 48 hours, the relative light units (RLU) of each well were determined by using a luciferase detection reagent (Promega). Inhibition rate (%) and IC50 value were calculated.
Among them, the A, B and C subtypes were the main viruses causing AIDS epidemic in the world, while B/C and A/E recombinant viruses were the main viruses in China. […] Among the Env expression plasmids used for the preparation of pseudoviral, except that the Env expression plasmids used for preparation of PVO, Du156 and CAP 210.2.00.E8 were obtained from the AIDS Reagent Program of NIH in the United states, other plasmids were preserved by the laboratory of Prof. He Yuxian, Institute of Pathogen Biology, Chinese Academy of Medical Sciences, please see the References 13, 14 and 18 listed in the Background Art and articles of Chong et al. (Chong H, Yao X, Zhang C, Cai L, Cui S, Wang Y, He Y. Biophysical property and broad anti-HIV activity of Albuvirtide, a 3-maleimimidoproprotionic acid-modified peptide fusion inhibitor. PLoS One, 2012; 7 (3): e 32599). The preparation of the pseudovirus and the antiviral assay were the same as those in Example 2.1 of Example 2 (HIV-1 pseudovirus-mediated cell entry inhibition assay).

[6] = system: HIV-2 strain ROD (infectious); assay: inhibition of HIV-2; assay type: cell-based; conditions: HIV-2 ROD
Experimental: (§4) Inhibition rate (%) and IC50 value were calculated.
as §3

HIV-1 strain JRCSF = assay type: cell-based
Experimental: as §4

[7] = system: NL4-3 pseudovirus carrying T-20 resistance mutation site of NHR; assay: inhibition of T-20 resistant strains; assay type: cell-based, HIV-1; conditions: strains with single or double mutations
[8] = biological target: N39 (NHR-derived polypeptide of gp41) (Human immunodeficiency virus type 1 group M subtype B, UniProt P04578); assay type: binding, HIV-1; conditions: 10 μM each, PBS pH 7.2
Experimental: as §1

[9] = system: HIV-1 strain NL4-3 (NL4-3D36G); assay: antiviral activity in serum of macaque after subcutaneous injection; assay type: in vivo, macaques (rhesus monkeys); conditions: 3 mg/kg subcutaneous
Experimental: The specific method was as follows: 6 experimental macaques (rhesus monkeys) were selected, half male and half female, aged 3-4 years old, weighing 3.4-4.7 kg. […] The serum was separated according to a conventional method. The injection interval of each inhibitor was more than 2 weeks to ensure that there was no residue of the previous analyte. The serum activity against the HIV-1 strain NL4-3 (NL4-3D36G) was measured according to the experimental method of the pseudovirus-based assay in the above examples. The serum was diluted by 3 folds. […] Therefore, the lipopeptides of the present invention were not only potent but also were long-lasting effective.

NL4-3WT pseudovirus = conditions: wild type NL4-3WT
From the text: HIV-1 pseudovirus-mediated cell entry inhibition assay: basic steps included: (1) Preparation of HIV-1 pseudovirus: the 293T cells were co-transfected with a plasmid expressing the envelope protein (Env) of HIV-1 strain NL4-3 (i.e., a recombinant expression plasmid obtained by inserting the gene encoding the envelope protein (ENV) of the D36G mutant of the HIV-1 strain NL4-3 in the Table 2 of the Reference 14 listed in the Background Art into the vector pcDNA3.1(−)) and the HIV-1 backbone plasmid pSG3Δenv (provided by the AIDS Reagent Program of National Institutes of Health (NIH), catalog number: 11051) by using a cell transfection reagent, incubated in a cell incubator of 37° C. and 5% CO2 for 6 hours, and then the medium was changed, and the cells were further incubated for 48 hours. The cell culture supernatant containing pseudovirus particles was pipetted and filtered with a 0.45 μm filter to collect the supernatant, then 20% fetal bovine serum (FBS) was added thereto, the final solution was transferred to a polypropylene tube, and stored at −80° C. for ready for use or directly subjected to virus titration. […] The TZM-b1 cells were trypsinized and counted, and the cells were diluted to 1×10^5 cells/ml with DMEM complete medium; 100 μl of cells dilution (containing 15 μg/ml DEAE-dextran) per well were added and cultured at 37° C. and 5% CO2 for 48 hours. […]

N39 (NHR-derived polypeptide of gp41), sequence (P04578 528-566): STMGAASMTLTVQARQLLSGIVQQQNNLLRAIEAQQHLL

**Q.** What does the source list for `CCCCCCCCCCCCCCCC(=O)NCCCC[C@H](NC(=O)[C@H](CCC(=O)O)NC(=O)[C@H](CC(C)C)NC(=O)[C@H](CCCCN)NC(=O)[C@H](CCCCN)NC(=O)[C@H](CC(C)C)NC(=O)[C@H](CCC(=O)O)NC(=O)[C@H](CCC(=O)O)NC(=O)[C@H](CCC(=O)O)NC(=O)[C@H](CC(N)=O)NC(=O)[C@H](CCCCN)NC(=O)[C@H](CCCCN)NC(=O)[C@H](CCC(N)=O)NC(=O)[C@H](CCC(N)=O)NC(=O)[C@H](CCC(=O)O)NC(=O)[C@H](CCC(=O)O)NC(=O)[C@H](CO)NC(=O)[C@H](CCCCN)NC(=O)[C@H](CCCCN)NC(=O)[C@@H](NC(=O)[C@H](CC(C)C)NC(=O)[C@H](CCC(=O)O)NC(=O)[C@H](CCC(=O)O)NC(=O)[C@@H](NC(=O)[C@H](CC(C)C)NC(=O)[C@H](CO)NC(=O)[C@@H](NC(=O)[C@H](Cc1ccc(O)cc1)NC(C)=O)[C@@H](C)O)[C@@H](C)CC)[C@@H](C)CC)C(N)=O` [LP-50] (Ac-YTSLIEELIKKSEEQQKKNEEELKKLEK(Palmitoyl)-NH2)?
**A.** secondary structure of the inhibitor itself (in words) [1]: distinct helical structure; IC50 ([2]; HXB2-cell fusion, read-out: IC50 for inhibiting cell fusion): 0.021 nM; inhibitory activity as folds of that of T-20 ([2]; HXB2-mediated cell fusion, relative to T-20): 1151 folds; inhibitory activity as folds of that of LP-40 ([2]; cell fusion, relative to LP-40): 20 folds; IC50 ([3]; Entry of NL4-3 (D36G), read-out: IC50 for inhibiting pseudovirus): 0.007 nM; inhibitory activity as folds of that of T-20 ([3]; NL4-3 pseudovirus entry, relative to T-20): 1345 folds; inhibitory activity as folds of that of LP-40 ([3]; pseudovirus, relative to LP-40): 63 folds; inhibitory activity against SIV (in words) [4]: extremely potent inhibitory activity; IC50 [5]: 0.041 nM; inhibitory activity against different subtypes of HIV-1 as folds of T-20 ([5]; relative to T-20, from average IC50): 1010 folds; inhibitory activity against HIV-2 (in words) [6]: extremely potent inhibitory activity; inhibitory activity as folds of that of T-20 (HIV-1 strain JRCSF; JRCSF replication, relative to T-20): 226 folds; IC50 (HIV-1 strain JRCSF; Replication of JRCSF, read-out: IC50 for inhibiting replicative virus): 0.023 nM; inhibitory activity as folds of that of LP-40 (HIV-1 strain JRCSF; replicative virus, relative to LP-40): 12 folds; inhibitory activity against T-20 resistant strains (in words) [7]: further improved by hundreds or even thousands of folds; Tm value of the complex with N39 [8]: 63.3 °C

**Q.** For enfuvirtide, which “secondary structure of the inhibitor itself (in words)” value [1] is on record?
**A.** irregular disorder structure

**Q.** What about the IC50 ([3]; NL4-3D36G mutant, Example 4, read-out: IC50) of the same molecule?
**A.** 13.7 nM

**Q.** What about the “maximum serum dilution multiple for inhibiting 50% of NL4-3 infectivity” value ([9]; 2 hour after injection) of the same molecule?
**A.** 45 folds

**Q.** And the “maximum serum dilution multiple for inhibiting 50% of NL4-3 infectivity” value ([9]; 4 hour after injection)?
**A.** 46 folds

**Q.** What about the “inhibitory activity against SIV (in words)” value [4] of the same molecule?
**A.** extremely weak

**Q.** And the IC50 [5]?
**A.** 41.4 nM

**Q.** What about the “inhibitory activity against HIV-2 (in words)” value [6] of the same molecule?
**A.** extremely weak

**Q.** And the “inhibitory activity against T-20 resistant strains (in words)” value [7]?
**A.** significantly increased by several folds

**Q.** And the “helix content of the complex with N39” value [8]?
**A.** 48.6%

**Q.** What about the IC50 (NL4-3WT pseudovirus) of the same molecule?
**A.** 152 nM
